# Data from patent US12551463B2, “Dosing of a Bruton's tyrosine kinase inhibitor” (Loxo Oncology, Inc., priority 2019, dated 2026).
# Like-named read-outs stand apart in the source and are kept apart here.
# Tests used:
# [1] = target: T1, BTK C481S mutant (Homo sapiens, UniProt Q06187, C481S); assay: BTK Y223 autophosphorylation in HEK293 cells expressing BTK C481S mutant; format: cell-based
# T1 construct: expressed in transfected cells
# Protocol: HEK293 cell lines stably expressing BTK wild type and the mutant form C481S are generated using standard transfection methods. For assessment of cellular inhibition potency, cells are grown in DMEM+10% FBS+1 μg/mL puromycin (complete growth media) at 37° C. in a C02 incubator. Cells are harvested according to standard protocols using TrypLE (Gibco #12604-013), counted, resuspended in complete growth media, and added to 6 well assay plates at […] in 2 mL. Plates are incubated overnight at 37° C. with 5% C02. The following day, cells are treated for 2 hours with BTK-I, prepared as a 6-point dose curve, 1:3 dilution series with final concentrations starting at a maximum concentration of 300 nM and a constant DMSO concentration of 0.5% (v/v). Control wells contain 0.5% (v/v) DMSO alone (no inhibition control). […] Supernatants are quantified by BCA (Pierce #23225) and stored at −80° C. Samples are analyzed by Simple Western (Protein Simple) with anti-phospho-BTK (Y223) (Cell signaling technologies (cst) #5082) and anti-BTK (cst #8547). β-actin is the used as a loading control and detected by regular Western blot with an anti-β-actin antibody (cst #4970). Simple Western results are analyzed with Compass software (Protein Simple). BTK Y223 phosphorylation signal is normalized to total BTK, and IC50 values are calculated using a 4-parameter fit in GraphPad Prism 7.04 software.
# [2] = tested on: Richter's transformation; assay: Phase 1/2 clinical study, Richter's transformation patients; format: in vivo, human; details: 6 of 8 patients
# From the text: The study is an open-label, multi-center study of oral BTK-I to evaluate safety and efficacy as monotherapy and as part of combination therapy in patients with CLL/SLL and NHL who have failed or are intolerant to standard of care. This study includes monotherapy as well as combination treatment parts. The monotherapy part includes Phase 1 dose escalation and dose expansion as well as Phase 2. The combination therapy part is a Phase 1b (safety assessment and expansion) of BTK-I in combination with venetoclax, with or without anti-CD20 therapy. Phase 1 dose escalation will proceed prior to start of Phase 1b or Phase 2. Once a recommended Phase 2 dose (RP2D) is identified in Phase 1, enrollment can commence to the Phase 1b combination therapies and Phase 2 monotherapy cohorts. […]
# The primary objective of the Phase 2 is to assess the primary anti-tumor activity of BTK-I based on overall response rate (ORR) and as assessed by the Independent Review Committee. […]
# Dosing during Phase 2 will be at the RP2D of 200 mg QD. […] The dose (and schedule) chosen for Phase 2 may be changed by the SRC based on emerging data (e.g., PK, safety, and/or efficacy) as long as the new dose is not greater than the highest dose that has a DLT <33% and is determined to be safe by the SRC in Phase 1. […]
# T1 sequence (Q06187 whole entry C481S): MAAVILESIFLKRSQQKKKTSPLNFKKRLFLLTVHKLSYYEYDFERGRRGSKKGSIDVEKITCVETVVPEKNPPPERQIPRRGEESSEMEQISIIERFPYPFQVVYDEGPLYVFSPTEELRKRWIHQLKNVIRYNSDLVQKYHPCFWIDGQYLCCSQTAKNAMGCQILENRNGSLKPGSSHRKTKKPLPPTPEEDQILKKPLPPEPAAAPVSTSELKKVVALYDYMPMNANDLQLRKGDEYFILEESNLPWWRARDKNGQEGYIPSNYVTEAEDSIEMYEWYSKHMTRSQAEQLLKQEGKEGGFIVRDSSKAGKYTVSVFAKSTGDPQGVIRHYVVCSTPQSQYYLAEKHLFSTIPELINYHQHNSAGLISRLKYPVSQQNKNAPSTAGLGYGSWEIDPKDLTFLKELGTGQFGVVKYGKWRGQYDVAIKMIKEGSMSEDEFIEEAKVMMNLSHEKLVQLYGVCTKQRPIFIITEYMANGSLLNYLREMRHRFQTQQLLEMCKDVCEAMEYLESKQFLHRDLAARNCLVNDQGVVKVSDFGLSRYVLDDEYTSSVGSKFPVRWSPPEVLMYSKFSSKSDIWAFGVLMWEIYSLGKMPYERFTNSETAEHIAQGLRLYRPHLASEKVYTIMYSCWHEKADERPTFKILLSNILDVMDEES
smiles,measurement,setting,value
"COc1ccc(F)cc1C(=O)NCc1ccc(-c2nn([C@@H](C)C(F)(F)F)c(N)c2C(N)=O)cc1 [BTK-I, (S)-5-amino-3-(4-((5-fluoro-2-methoxybenzamido)methyl)phenyl)-1-(1,1,1-trifluoropropane-2-yl)-1H-pyrazole-4-carboxamide]",IC90,[1]; read-out: IC90,0.0792 µM
same,IC90,[1]; read-out: IC90 translated to total drug in human plasma,0.824 mg/L
same,responses,[2],75%
